Data: patent publication US6538022B1, “Compounds for deactivating phospholamban function on Ca-ATPase (phopholamban inhibitors)” (Orion Corporation, priority 1997, dated 2003)
Bridges are numbered along the chain shown (N, C = ends). Where no end group is shown, it is not given here.

How the values were obtained:
[1] = tested on: guinea-pig heart; experiment: Left ventricular systolic pressure in isolated Langendorff-perfused heart; conditions: Cavia porcellus; for Emax at 30 µM / Emax at 10 µM: read-out: maximum effect (% change from baseline) on left ventricular systolic pressure; for EC50: concentration range 0.3-30 μM
Source text: Experiment 2. The effects on the left ventricular pressure derivatives
Guinea-pigs of either sex weighing 300-400 g were used in the study. After the guinea-pig was sacrificed by a blow on the skull and decapitated the heart was rapidly excised. The heart was then rinsed in cold oxygenated perfusion buffer. A cannula was inserted into the aorta and secured with a ligature. Retrograde perfusion began as soon as the heart was placed in a thermostatically controlled moist chamber of the Langendorff apparatus. Modified Tyrode solution (37° C.), equilibrated in a thermostatically controlled bulb oxygenator with carbogen (95% O2 and 5% CO2) was used as a perfusion buffer. The composition of the Tyrode solution was (in mM): NaCl 135; MgCl2×6H2O 1; KCl 5; CaCl2×2H2O 2; NaHCO3 15; Na2HPO4×2H2O 1; glucose 10; pH 7.3-7.4. The experiments were carried out under constant pressure condition (50 mmHg). After a short prestabilization (10 min) a latex balloon (size 4) was carefully placed into the left ventricle through the left pulmonary vein and the left atrium. The latex balloon was attached to a stainless-steel cannula coupled with a pressure transducer. The latex balloon, the cannula and the chamber of the pressure transducer were filled with ethylene glycol/water (1:1) mixture avoiding any air-bubble. The isovolumetric left ventricular pressure was recorded through the pressure transducer. At the beginning of the experiment, the volume of the balloon was adjusted to obtain a diastolic pressure of approximately 5 mmHg. Before starting the experiment, the heart was allowed to stabilise further for 30-50 min with vehicle (0.1% DMSO) in the perfusion buffer.
After 15 min baseline recording various concentrations of the test compound were added to the perfusion buffer at 15 min intervals. The concentration range of 0.3-30 μM was tested. The vehicle concentration (0.1% DMSO) was kept constant throughout the experiment.

[2] = tested on: phospholamban; experiment: Ca2+ uptake into SR vesicles prepared from cardiac tissue (fluo-3); assay type: biochemical, guinea pig; conditions: 0.1 μM free calcium
Source text: (§1) Experiment 1. Effect on calcium uptake into the SR vesicles prepared from cardiac and fast skeletal muscle
(§2) Since phospholamban represses both the rates of relaxation and contraction in the mammalian heart through its inhibitory effects on the cardiac SR Ca^2+-ATPase, a compound relieving these effects is potentially useful in the treatment of heart failure.
(§3) Guinea pigs (10-12) were decapited. Their hearts or the psoas muscles were excised, washed in ice-cold 0.9% NaCl and cut into pieces in a buffer containing 20 mM Tris-maleate, 0.3 M sucrose, pH 7.0. Thereafter tissue pieces were homogenized with Polytron and further with Potter (10 strokes). The homogenate was centrifugated at 1000 g for 15 min at 4° C. The supernatant was collected and the pellet was resuspended into 5 ml of the buffer (20 mM Tris-maleate, 0.3 M sucrose, pH 7.0) and recentrifugated at 1000 g for 10 min at 4° C. The obtained supernatant was combined with the earlier collected supernatant and centrifugated once again at 10000 g for 20 min at 4° C. The final supernatant was filtered into a bottle equipped with a magnetic stirrer. KCl was added to the filtered supernatant to achieve the final concentration of 0.6 M (at 4° C.). The obtained solution was centrifugated at 100 000 g for 60 min at 4° C. The pellet was suspended in 5 ml of the buffer containing 20 mM Tris-maleate, 0.3 M sucrose, pH 7.0 and centrifugated at 100 000 g for 60 min at 4° C. The obtained pellet was suspended in 5 ml of buffer containing 20 mM Tris-maleate, 0.3 M sucrose, 0.1 M KCl, pH 7.0 and stored at −80° C. until use. The protein concentration was also measured in order to standardise the separately prepared vesicle preparations.
(§4) In the calcium uptake assay, the fluorescent indicator, fluo-3 was used to detect the decrease of the extravesicular Ca^2+-concentration, when the SR Ca^2+ATPase was transferring Ca^2+ from the extravesicular space into the SR-vesicles.
(§5) The SR-vesicles obtained above (50 μg protein/ml) were pre-incubated with or without the test compound at 37° C. for 5 min in the assay buffer containing 40 mM imidazole, 95 mM KCl, 5 mM NaN3, 5 mM MgCl2, 0.5 mM EGTA, 5 mM potassium oxalate, 2 μM ruthenium red, 5 μM fluo-3, pH 7.0. The free calcium was adjusted to 0.1 μM or to 0.04 μM by CaCl2. The reaction was initiated by adding ATP (5 mM). The final reaction volume was 1.5 ml. The fluorescence of reaction mixture was measured for 3 min by using the excitation and emission wavelengths of 510 nm and 530 nm, respectively.

[3] = tested on: SR Ca^2+-ATPase; experiment: Ca2+ uptake into SR vesicles prepared from fast skeletal muscle (psoas m.), which lack phospholamban (fluo-3); assay type: biochemical, guinea pig; conditions: 0.04 μM free calcium
Source text: as §1, §2, §3, §4, §5

[4] = molecular target: T1, PLB (Homo sapiens, UniProt P26678); experiment: Peptide screen for binding to PLB
T1 sequence (P26678 1-52): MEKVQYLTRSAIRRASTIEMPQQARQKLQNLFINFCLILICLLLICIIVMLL
Source text: In order to find a lead molecule which would interact with PLB a series of peptides were screened. […] It was concluded that the cyclic peptide of formula (pI) binds to unphosphorylated PLB and prevents the inhibition exerted by PLB on SERCA—2 thus acting as a PLB deactivator. The cyclic peptide (pI) has the structure: [drawing 1]

Compound | Emax at 30 µM [1] [%] | EC50 [1] [µM] | The stimulation (%) of Ca^2+ uptake, A (ventricular myocardium vesicles) ([2]; 100 μM compound) [%] | Emax at 10 µM [1] [%] | also measured
Cc1c(Cc2ccccc2)c(=O)oc2cc(OCc3nn[nH]n3)cc(OCc3nn[nH]n3)c12 [Example 1c, 3-Benzyl-5,7-bis[(1H-tetrazol-5-yl)methoxy]-4-methyl-2H-1-benzopyran-2-one] | 52 | 9 | – | – | –
O=c1oc2cc(OCc3nn[nH]n3)cc(OCc3nn[nH]n3)c2c2c1C(c1ccccc1)CCC2 (centres unmarked) [Example 2c, 7,8,9,10-Tetrahydro-1,3-bis[(1H-tetrazol-5-yl)methoxy]-7-phenyl-6H-dibenzo[b,d]pyran-6-one] | – | – | 26 | – | The stimulation (%) of Ca^2+ uptake, B (fast skeletal muscle vesicles) ([3]; 100 μM compound): −1%
Cc1c(Cc2ccccc2)c(=O)oc2cc(OCc3noc(=O)[nH]3)cc(OCc3noc(=O)[nH]3)c12 [Example 3c, 3-Benzyl-5,7-bis[(2,5-dihydro-5-oxo-4H-1,2,4-oxadiazol-3-yl)-methoxy]-4-methyl-2H-1-benzopyran-2-one] | – | 4 | – | 63 | The stimulation (%) of Ca^2+ uptake, A (ventricular myocardium vesicles) ([2]; 20 μM compound): 51%; The stimulation (%) of Ca^2+ uptake, B (fast skeletal muscle vesicles) ([3]; 20 μM compound): 0%
O=c1cc(-c2ccccc2)c2c(OCc3nn[nH]n3)cc(OCc3nn[nH]n3)cc2o1 [Example 5c, 5,7-Bis[(1H-tetrazol-5-yl)methoxy]-4-phenyl-2H-1-benzopyran-2-one] | 14 | – | – | – | –
O=c1oc2cc(OCc3nn[nH]n3)cc(OCc3nn[nH]n3)c2c2c1CC(c1ccccc1)CC2 (centres unmarked) [Example 6c, 7,8,9,10-Tetrahydro-1,3-bis[(1H-tetrazol-5-yl)methoxy]-8-phenyl-6H-dibenzo[b,d]pyran-6-one] | – | 0.5 | – | 25 | –
Cc1c(CCc2ccccc2)c(=O)oc2cc(OCc3nn[nH]n3)cc(OCc3nn[nH]n3)c12 [Example 7c, 5,7-Bis[(1H-tetrazol-5-yl)methoxy]-4-methyl-3-(2-phenylethyl)-2H-1benzopyran-2-one] | – | 2.5 | 5 | 29 | The stimulation (%) of Ca^2+ uptake, B (fast skeletal muscle vesicles) ([3]; 100 μM compound): −17%
Cc1c(Cc2ccccc2)c(=O)n(Cc2ccccc2)c2cc(OCc3nnn[nH]3)cc(OCc3nn[nH]n3)c12 [Example 8g, 5,7-Bis[(1H-tetrazol-5-yl)methoxy]-1,3-dibenzyl-4-methyl-2(1H)-quinolinone] | – | 2 | – | 64 | The stimulation (%) of Ca^2+ uptake, A (ventricular myocardium vesicles) ([2]; 10 μM compound): 18%; The stimulation (%) of Ca^2+ uptake, B (fast skeletal muscle vesicles) ([3]; 10 μM compound): 0%
Cc1c(Cc2ccccc2)c(=O)n(C)c2cc(OCc3nnn[nH]3)cc(OCc3nn[nH]n3)c12 [Example 9d, 5,7-Bis[(1H-tetrazol-5-yl)methoxy]-3-benzyl-1,4-dimethyl-2(1H)-quinolinone] | 50 | 5 | – | – | –
Cc1c(Cc2ccccc2)c(=O)oc2cc(OC(C)c3nn[nH]n3)cc(OC(C)c3nn[nH]n3)c12 (centres unmarked) [Example 11b, 3-Benzyl-5,7-bis[1-(1H-tetrazol-5-yl)ethoxy]4-methyl-2 H-1-benzopyran-2-one] | – | – | 28 | – | –
Cc1c(Cc2ccccc2)c(=O)n(Cc2ccccc2)c2cc(OCC(=O)O)cc(OCC(=O)O)c12 [Example 12, 5,7-Bis(carboxymethoxy)-1,3-dibenzyl-4-methyl-2(1H)-quinolinone] | – | – | 32 | 22 | –
Cc1c(Cc2ccccc2)c(=O)n(Cc2ccc(F)cc2)c2cc(OCc3nn[nH]n3)cc(OCc3nn[nH]n3)c12 [Example 13d, 3-Benzyl-5,7-Bis[(1H-tetrazol-5-yl)methoxy]-1-(4-fluorobenzyl)-4-methyl-2(1H)-quinolinone] | 48 | 10 | – | – | The stimulation (%) of Ca^2+ uptake, A (ventricular myocardium vesicles) ([2]; 50 μM compound): 23%
Cc1c(Cc2ccc(Cl)cc2)c(=O)oc2cc(OCc3nn[nH]n3)cc(OCc3nn[nH]n3)c12 [Example 14c, 5,7-Bis[(1H-tetrazol-5-yl)methoxy]-3-(4-chlorobenzyl)-4-methyl-2H-1-benzopyran-2-one] | – | – | – | 25 | The stimulation (%) of Ca^2+ uptake, A (ventricular myocardium vesicles) ([2]; 10 μM compound): 18%
Cc1c(Cc2ccc([N+](=O)[O-])cc2)c(=O)oc2cc(OCc3nn[nH]n3)cc(OCc3nn[nH]n3)c12 [Example 15c, 5,7-Bis[(1H-tetrazol-5-yl)methoxy]-3-(4-nitrobenzyl)-4-methyl-2H-1-benzopyran-2-one] | – | 3 | – | 37 | –
Cc1c(C2CCCC2)c(=O)oc2cc(OCc3nn[nH]n3)cc(OCc3nn[nH]n3)c12 [Example 16c, 5,7-Bis[(1H-tetrazol-5-yl)methoxy]-3-cyclopentyl-4-methyl-2H-1-benzopyran-2-one] | 57 | 10 | – | – | –
Cc1cc(=O)n(Cc2ccccc2)c2cc(OCc3nnn[nH]3)cc(OCc3nnn[nH]3)c12 [Example 18e, 1-Benzyl-5,7-bis-[(1H-tetrazol-5-yl)methoxy]-4-methyl-2(1H)-quinolinone] | 35 | 10 | 13 | – | –
Cc1c(Cc2ccccc2F)c(=O)n(Cc2ccccc2)c2cc(OCc3nnn[nH]3)cc(OCc3nnn[nH]3)c12 [Example 19e] | 39 | 6 | – | – | –
Cc1c(Cc2ccccc2)c(=O)n(Cc2ccccc2)c2cc(OCC(N)=O)cc(OCC(N)=O)c12 [Example 21, 5,7-Bis(aminocarbonylmethoxy)-1,3-dibenzyl-4-methyl-2(1H)-quinolinone] | – | – | 11 | – | –
Cc1c(Cc2ccccc2)c(=O)n(Cc2ccccc2)c2cc(OCC(=O)NO)cc(OCC(=O)NO)c12 [Example 23, 5,7-Bis(hydroxyaminocarbonylmethoxy)-1,3-dibenzyl-4-methyl-2(1H)-quinolinone] | – | – | – | – | The stimulation (%) of Ca^2+ uptake, A (ventricular myocardium vesicles) ([2]; 5 μM compound): 20%
cP226: cyclic peptide of formula (pI) wherein X is Tyr; linear CYWELEWLPCA cyclized by intramolecular disulphide bridge; PLB deactivator (disulfide 1-10 (inferred)) | – | – | – | – | binding to PLB [4]: binds to the ligand binding site of phospholamban
